# Assay results as given in US20070225248A1 (Clavis Pharma AS, priority 2006, published 2007).
# Read-outs that look alike come from different tables or passages of the source. Marks after values point to notes of the source that are not given here.
# What was measured:
# [1] = test system: Co6044 (human colon carcinoma); assay: Antitumour activity in human colon cancer xenograft Co6044, IP treatment; conditions: for Toxic deaths (d): 8 mice; for Optimum T/C [%]: significant vs saline
# Excerpt: (§1) Treatment started when the tumors reached a mean volume of 100 mm^3.
# [2] = test system: Colon 6044 (human colon carcinoma); assay: Antitumour activity in Co6044 after oral administration, different dosing schedules (Table 4); assay type: in vivo, mice; conditions: for Toxic deaths (d): 7 mice; for Optimum T/C [%] (on day): significant vs saline
# Excerpt: Antitumour Activity of Elaidic Acid (5′)-Gemcitabine Ester in Co6044 After Oral Administration
# [3] = Maximum tolerated dose, administration every third day repeated five times; assay type: in vivo, mice; conditions: administered every third day
# Excerpt: This is shown below by the experiments presented in table 1 and table 2 using different mice strains and also different human colon xenografts.
# [4] = test system: Colon 5776 (human colon carcinoma); assay: Antitumour activity in human colon cancer xenograft Co5776, IP treatment; conditions: for Toxic deaths (d): 8 NCR:nu/nu female mice; for Optimum T/C [%] (volume of treated tumour versus control tumour): significant vs saline; for antitumour activity in terms of reductions in tumor growth (in words): FIG. 1
# Excerpt: (§2) Human colon cancer Co5776 was inserted to Ncr:nu/nu female mice subcutaneously, and treatment started when tumors reached a mean volume of 100 mm^3.
# [5] = test system: Colon 6044 (human colon carcinoma)
# [6] = test system: Colon 5776 (human colon carcinoma); conditions: mouse, in vivo, ip, 120 mg/kg
# Excerpt: as §2
# [7] = test system: Co6044 (human colon carcinoma); conditions: mouse, in vivo, ip, 120 mg/kg
# Excerpt: as §1
# [8] = IP 40 mg/kg, D8, 11, 14, 17, 20
# [9] = Oral 10 mg/kg, D 7, 10, 13, 16, 19
# [10] = Oral 15 mg/kg, D 7, 10, 13, 16, 19
# [11] = IP 120 mg/kg, D8, 11, 14, 17, 20
smiles,measurement,setting,value
"CCCCCCCC/C=C/CCCCCCCC(=O)OC[C@H]1O[C@@H](n2ccc(N)nc2=O)C(F)(F)[C@@H]1O [Elaidic acid (5′)-gemcitabine ester, elaidic acid (5′)-gemcitabine ester]",antitumor effect (in words),[1]; IP 40 mg/kg every third day for five times,Excellent antitumor effect
same,Toxic deaths (d),[1]; [8],0
same,BWC D 8-15 (body weight change),"[1]; IP 40 mg/kg, D8, 11, 14, 17, 20, D 8-15",−1
same,Optimum T/C [%],[1]; [8],19* %
same,BWC [%],"[2]; Oral 5 mg/kg, D 7-11",−3%
same,Toxic deaths (d),"[2]; Oral 5 mg/kg, D 7-11",0
same,Optimum T/C [%] (on day),"[2]; Oral 5 mg/kg, D 7-11, optimum on day 28",10(28)* %
same,BWC [%],[2]; [9],−1%
same,Toxic deaths (d),[2]; [9],0
same,Optimum T/C [%] (on day),"[2]; Oral 10 mg/kg, D 7, 10, 13, 16, 19, optimum on day 24",35(24)* %
same,BWC [%],"[2]; Oral 10 mg/kg, D 7-11",−5%
same,Toxic deaths (d),"[2]; Oral 10 mg/kg, D 7-11",0
same,Optimum T/C [%] (on day),"[2]; Oral 10 mg/kg, D 7-11, optimum on day 17",8(17)* %
same,BWC [%],[2]; [10],−1%
same,Toxic deaths (d),[2]; [10],0
same,Optimum T/C [%] (on day),"[2]; Oral 15 mg/kg, D 7, 10, 13, 16, 19, optimum on day 24",27(24)* %
same,BWC [%],"[2]; Oral 20 mg/kg, D 7, 10, 13, 16, 19",−3%
same,Toxic deaths (d),"[2]; Oral 20 mg/kg, D 7, 10, 13, 16, 19, death on day 17",1(17)
same,Optimum T/C [%] (on day),"[2]; Oral 20 mg/kg, D 7, 10, 13, 16, 19, optimum on day 24",16(24)* %
same,BWC [%],"[2]; Oral 50 mg/kg, D 7, 14",0%
same,Toxic deaths (d),"[2]; Oral 50 mg/kg, D 7, 14",0
same,Optimum T/C [%] (on day),"[2]; Oral 50 mg/kg, D 7, 14, optimum on day 17",22(17)* %
same,BWC [%],"[2]; Oral 100 mg/kg, D 7, 14",−4%
same,Toxic deaths (d),"[2]; Oral 100 mg/kg, D 7, 14, death on day 20",1(20)
same,Optimum T/C [%] (on day),"[2]; Oral 100 mg/kg, D 7, 14, optimum on day 24",4(24)* %
same,activity after oral administration (in words),"[2]; oral, all tested schedules",High dose dependent activity
same,significance of antitumour activity (in words),"[2]; oral, all the tested schedules",Significant antitumour activity
same,maximum tolerated dose,[3],40 mg/kg per injection
same,BWC [%] (body weight change),[4]; [8],−4%
same,Toxic deaths (d),[4]; [8],0
same,Optimum T/C [%] (volume of treated tumour versus control tumour),[4]; [8],17* %
same,antitumour activity in terms of reductions in tumor growth (in words),[4]; IP 40 mg/kg,high antitumour activity
same,BWC [%] D 13,"[5]; Oral 40 mg/kg, Q3 × 5, D 13",−7%
same,Toxic deaths (d),"[5]; Oral 40 mg/kg, Q3 × 5, deaths on day 15",2/8 (15)
same,Optimum T/C [%] (on day),"[5]; Oral 40 mg/kg, Q3 × 5, optimum on day 27, significant vs saline",5(27)* %
same,Optimum T/C [%] (on day),"[5]; Oral 60 mg/kg, Q3 × 5",Toxic
same,BWC [%] D 13,"[5]; Oral 60 mg/kg, Q3 × 5, D 13",−9%
same,Toxic deaths (d),"[5]; Oral 60 mg/kg, Q3 × 5, deaths days 12-24",6/8(12-24)
same,Optimum T/C [%] (on day),"[5]; Oral 80 mg/kg, Q3 × 5",Toxic
same,BWC [%] D 13,"[5]; Oral 80 mg/kg, Q3 × 5, D 13",−6%
same,Toxic deaths (d),"[5]; Oral 80 mg/kg, Q3 × 5, deaths days 16-22",6/8(16-22)
same,activity and tolerability when given orally (in words),"[5]; oral, 40 mg/kg",highly active and tolerable
"Nc1ccn([C@@H]2O[C@H](CO)[C@@H](O)C2(F)F)c(=O)n1 [Gemcitabine, 2′,2′-difluorodeoxycytidine, reference compound]",antitumor effect (in words),[1]; IP 120 mg/kg every third day for five times,Excellent antitumor effect
same,Toxic deaths (d),[1]; [11],0
same,Optimum T/C [%],[1]; [11],15* %
same,maximum tolerated dose,[3],approximately 120 mg/kg per injection
same,Toxic deaths (d),"[4]; IP 120 mg/kg, D8, 11, 14, 17, 20, death on day 18",1(18)
same,Optimum T/C [%] (volume of treated tumour versus control tumour),[4]; [11],17* %
same,antitumour activity in terms of reductions in tumor growth (in words),[4]; IP 120 mg/kg,high antitumour activity
same,BWC [%] (body weight change),[6],−5%
same,BWC [%] D 13,"[5]; mouse, in vivo, po, 120 mg/kg",−16%
same,BWC [%] D 13,"[5]; mouse, in vivo, po, 180 mg/kg",−22%
same,BWC [%] D 13,"[5]; mouse, in vivo, po, 240 mg/kg",−21%
same,BWC D 8-15 (body weight change),[7],−3
